Peptide text beside a SMILES is read from it. * marks the point of attachment. Fmoc = O=C(OCC1c2ccccc2-c2ccccc21)*
System: Human mesenchymal stem cells (MSCs)
Assay: PCR gene expression of cells cultured in gels for 14 days
Format: cell-based
Settings: after 14 days
Procedure: Human mesenchymal stem cells (MSCs) were isolated from bone marrow taken from patients (with both patient and ethical consent) undergoing hip replacement surgery.A HISTOPAQUE (SIGMA-ALDRICH) gradient was used to isolate mononuclear cells and these cells were cultured in monolayer with α-MEM (with 10% heat-inactivated foetal calf serum, 100 U/ml streptomycin/penicillin and 0.85 mM ascorbic acid) under standard culture conditions (humidified atmostphere, 37° C., 5% CO2). After 5 days non-adherent cells were removed by washing with media.
At 80% confluence in passage 3 the MSCs were trypsinised and a cell count was performed. A suitable number of cells were centrifuged at 400 g for 5 minutes and then resuspended in a 10 mM Fmoc-Phe-Phe solution to a final concentration of 4×10^6 cells/ml. The cell suspension was mixed to ensure even cell distribution and 200 μl layers were pipetted into high pore density (0.4 μm pore size) cell culture inserts in 24-well plates. Media (α-MEM as previously described) was added gently to both the well and the insert and gels were allowed to polymerise.
The cell-seeded gels were then cultured under standard conditions for 14 days with media changed every 2 days. Following culture 1 ml of TRIZOL was added to each insert and the gels disrupted by pipetting. A modified RNA extraction procedure was performed combining both the TRIZOL and PURELINK (INVITROGEN) extraction procedures. RNA was reverse transcribed to cDNA using SUPERSCRIPT II (INVITROGEN) and PCR performed using a standard HOTSTARTAQ (QIAGEN) procedure for the house-keeping gene GAPDH as well as the transcription factor SOX-9, aggrecan and collagen types I and II.
PCR products were run on a 1.5% agarose gel containing ethidium bromide and visualised on a UV-transilluminator.

SMILES: O=C(N[C@@H](Cc1ccccc1)C(=O)N[C@@H](Cc1ccccc1)C(=O)O)OCC1c2ccccc2-c2ccccc21 [Entry 1, Fmoc-Phe-Phe-OH] (Fmoc-Phe-Phe-OH)
- cell viability (from gene expression): viable cells present
- expression of GAPDH (10 mM gel): expression
- expression of SOX-9 (10 mM gel): lack of expression
- expression of aggrecan (10 mM gel): lack of expression
- expression of type I collagen (10 mM gel): expression
- expression of type II collagen (10 mM gel): lack of expression

Source: patent publication US8420605B2, “Hydrogel compositions” (The University of Strathclyde, priority 2005, dated 2013)
